Experimental data published in article PMC9950745, “A novel promising laccase from the psychrotolerant and halotolerant Antarctic marine Halomonas sp. M68 strain” (Frontiers in Microbiology, 2023).

System: T1, Ant laccase
T1 construct: gene copA
Assay: spectrophotometric oxidation assay at […] nm, Michaelis-Menten fit
Format: biochemical
Details: 50 mM sodium acetate, pH 5.0, 20°C; partially purified preparation SNP30

## CCn1c(=NN=c2sc3cc(S(=O)(=O)O)ccc3n2CC)sc2cc(S(=O)(=O)O)ccc21 [ABTS, 2,2′-azino-bis (3-ethylbenzothiazoline-6-sulfonic acid)]
  Km: ~2000 µM
